Reference: patent US7138361B2, “Herbicidal heterocycles” (E. I. du Pont de Nemours and Company, priority 2000, dated 2006)

Tests used:
Assay type in all cases: in vivo
[1] = tested on: duck salad (Heteranthera limosa); test: Test B flooded paddy test; details: Rate 1000 g/ha, scale of 0 to 100 where 0 is no effect and 100 is complete control, visually evaluated after 13 to 15 days
Summary of the method: (§1)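 Rice, smallflower flatsedge, duck salad and barnyardgrass grown to 2-leaf stage in flooded paddy and treated with test chemicals. Plants kept in greenhouse 13 to 15 days, then visually rated against controls. Scale 0 (no effect) to 100 (complete control).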

[2] = tested on: smallflower flatsedge (Cyperus difformis); test: Test B flooded paddy test; details: Rate 1000 g/ha, scale of 0 to 100 where 0 is no effect and 100 is complete control, visually evaluated after 13 to 15 days
Summary of the method: as §1

rice (Oryza saliva) [3] = test: Test B flooded paddy test; details: Rate 1000 g/ha, scale of 0 to 100 where 0 is no effect and 100 is complete control, visually evaluated after 13 to 15 days
Summary of the method: as §1

[4] = tested on: barnyardgrass (Echinochloa crus-galli); test: Test B flooded paddy test; details: Rate 1000 g/ha, scale of 0 to 100 where 0 is no effect and 100 is complete control, visually evaluated after 13 to 15 days
Summary of the method: as §1

corn (Zea mays) [5] = test: Test B preemergence
Summary of the method: (§2)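 Preemergence: seeds planted and treated with test chemicals in non-phytotoxic solvent with surfactant; postemergence on plants 2–18 cm (1- to 4-leaf stage). Kept in greenhouse 13–15 days, then visually rated against controls on a 0 (no effect) to 100 (complete control) scale.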

[6] = tested on: crabgrass (Digitaria sanguinalis); test: Test B preemergence
Summary of the method: as §2

[7] = tested on: Surinam grass (Brachiaria decumbens); test: Test B preemergence
Summary of the method: as §2

[8] = tested on: cocklebur (Xanthium strumarium); test: Test B preemergence
Summary of the method: as §2

[9] = tested on: giant foxtail (Setaria faberii); test: Test B preemergence
Summary of the method: as §2

[10] = tested on: pigweed (Amaranthus retroflexus); test: Test B preemergence
Summary of the method: as §2

rice (Oryza saliva) [11] = test: Test B preemergence
Summary of the method: as §2

[12] = tested on: barnyardgrass (Echinochloa crus-galli); test: Test B preemergence
Summary of the method: as §2

[13] = tested on: lambsquarters (Chenopodium album); test: Test B preemergence
Summary of the method: as §2

[14] = tested on: morning glory (Ipomoea hederacea); test: Test B preemergence
Summary of the method: as §2

[15] = tested on: velvetleaf (Abutilon theophrasti); test: Test B preemergence
Summary of the method: as §2

corn (Zea mays) [16] = test: Test B postemergence; details: 13 to 15 days
Summary of the method: as §2

[17] = tested on: crabgrass (Digitaria sanguinalis); test: Test B postemergence; details: 13 to 15 days
Summary of the method: as §2

[18] = tested on: Surinam grass (Brachiaria decumbens); test: Test B postemergence; details: 13 to 15 days
Summary of the method: as §2

[19] = tested on: cocklebur (Xanthium strumarium); test: Test B postemergence; details: 13 to 15 days
Summary of the method: as §2

[20] = tested on: giant foxtail (Setaria faberii); test: Test B postemergence; details: 13 to 15 days
Summary of the method: as §2

wild oat (Avena fatua) = test: Test B postemergence; details: 13 to 15 days
Summary of the method: as §2

[21] = tested on: pigweed (Amaranthus retroflexus); test: Test B postemergence; details: 13 to 15 days
Summary of the method: as §2

[22] = tested on: barnyardgrass (Echinochloa crus-galli); test: Test B postemergence; details: 13 to 15 days
Summary of the method: as §2

[23] = tested on: blackgrass (Alopecurus myosuroides); test: Test B postemergence; details: 13 to 15 days
Summary of the method: as §2

[24] = tested on: lambsquarters (Chenopodium album); test: Test B postemergence; details: 13 to 15 days
Summary of the method: as §2

[25] = tested on: morning glory (Ipomoea hederacea); test: Test B postemergence; details: 13 to 15 days
Summary of the method: as §2

[26] = tested on: wheat (Triticum aestivum); test: Test B postemergence; details: 13 to 15 days
Summary of the method: as §2

[27] = tested on: velvetleaf (Abutilon theophrasti); test: Test B postemergence; details: 13 to 15 days
Summary of the method: as §2

[28] = Preemergence, Rate 500 g/ha, scale 0 to 100, 0 no effect, 100 complete control
[29] = preemergence, Rate 125 g/ha, scale of 0 to 100 where 0 is no effect and 100 is complete control, 13 to 15 days
[30] = Rate 125 g/ha, scale 0 (no effect) to 100 (complete control)
[31] = Rate 500 g/ha, scale 0 to 100, 0 is no effect, 100 is complete control

## Cc1ccc(N2CCC(n3ccc(C(C)(C)C)n3)C2=O)cc1C(F)(F)F (stereo not shown) [Compound 47]
[1]
  Plant response rating, Ducksalad: 20
[2]
  Plant response rating, Flatsedge: 100
Rice (Oryza saliva) [3]
  Plant response rating, Rice: 70
[4]
  Plant response rating, Barnyardgrass: 70
Corn (Zea mays) [5]; [28]
  Plant response rating, Corn: 0
Corn (Zea mays) [5]; [29]
  Plant response rating, Corn: 0
[6]; [28]
  Plant response rating, Crabgrass: 0
[6]; [29]
  Plant response rating, Crabgrass: 0
[7]; [28]
  Plant response rating, Surinam grass: 0
[7]; [29]
  Plant response rating, Surinam grass: 0
[8]; [28]
  Plant response rating, Cocklebur: 0
[8]; [29]
  Plant response rating, Cocklebur: 0
[9]; [28]
  Plant response rating, Foxtail, Giant: 0
[9]; [29]
  Plant response rating, Foxtail, Giant: 0
[10]; [28]
  Plant response rating, Pigweed: 100
[10]; [29]
  Plant response rating, Pigweed: 100
Rice (Oryza saliva) [11]; [28]
  Plant response rating, Rice: 20
Rice (Oryza saliva) [11]; [29]
  Plant response rating, Rice: 0
[12]; [28]
  Plant response rating, Barnyardgrass: 0
[12]; [29]
  Plant response rating, Barnyardgrass: 0
[13]; [28]
  Plant response rating, Lambsquarters: 100
[13]; [29]
  Plant response rating, Lambsquarters: 0
[14]; [28]
  Plant response rating, Morningglory: 0
[14]; [29]
  Plant response rating, Morningglory: 0
[15]; [28]
  Plant response rating, Velvetleaf: 0
[15]; [29]
  Plant response rating, Velvetleaf: 0
Corn (Zea mays) [16]; [30]
  Plant response rating, Corn: 0
Corn (Zea mays) [16]; [31]
  Plant response rating, Corn: 0
[17]; [30]
  Plant response rating, Crabgrass: 0
[17]; [31]
  Plant response rating, Crabgrass: 0
[18]; [30]
  Plant response rating, Surinam grass: 0
[18]; [31]
  Plant response rating, Surinam grass: 0
[19]; [30]
  Plant response rating, Cocklebur: 0
[19]; [31]
  Plant response rating, Cocklebur: 0
[20]; [30]
  Plant response rating, Foxtail, Giant: 0
[20]; [31]
  Plant response rating, Foxtail, Giant: 0
Wild oat (Avena fatua); [30]
  Plant response rating, Wild Oat: 0
Wild oat (Avena fatua); [31]
  Plant response rating, Wild Oat: 0
[21]; [30]
  Plant response rating, Pigweed: 50
[21]; [31]
  Plant response rating, Pigweed: 50
[22]; [30]
  Plant response rating, Barnyardgrass: 0
[22]; [31]
  Plant response rating, Barnyardgrass: 0
[23]; [30]
  Plant response rating, Blackgrass: 0
[23]; [31]
  Plant response rating, Blackgrass: 0
[24]; [30]
  Plant response rating, Lambsquarters: 70
[24]; [31]
  Plant response rating, Lambsquarters: 90
[25]; [30]
  Plant response rating, Morningglory: 0
[25]; [31]
  Plant response rating, Morningglory: 0
[26]; [30]
  Plant response rating, Wheat: 0
[26]; [31]
  Plant response rating, Wheat: 0
[27]; [30]
  Plant response rating, Velvetleaf: 0
[27]; [31]
  Plant response rating, Velvetleaf: 0
